Test results taken from patent US20240024233A1, “Oral Hydrogel Compositions and Uses” (Colgate-Palmolive Company, priority 2020, published 2024).
In brackets after ≈: the same amount, converted by molar mass.

Key:
[1] = Tetrahydrocurcumin solubility (saturation) in hydrogel formulations, UV 280 nm; type: physicochemical; conditions: 4 °C, aqueous with cosolvent or surfactant or cyclodextrin, thermodynamic from solid; tested gels
Experimental: Tetrahydrocurcumin is a highly insoluble drug. It has water solubility of about 6 μg/mL, and this has severely limited attempts to evaluate its in vitro or in vivo potency as a drug because of the difficulty of formulating compositions which can effectively deliver it to body tissues. It is thus a useful reference for compositions intended to deliver low-solubility active agents.
A range of hydrogel formulations are prepared in cold (4° C.) deionized water. Each cold formulation liquid is loaded with tetrahydrocurcumin (0.3 mg/mL of gel) via dispersion with a Speed Mixing apparatus (FlackTek, Inc). Samples are left to interact at 4° C. for 48 hours. Formulations are centrifuged at 10,000 rpm for 60 seconds to separate undissolved active. The saturation of active is determined via UV absorbance at 280 nm.
Tetrahydrocurcumin is found to be soluble in the above tested gels at the following saturation concentrations: […]

[2] = in water; cited from earlier work
[3] = system: Actinomyces viscosus (ATCC #43146) and Streptococcus oralis (ATCC #35037); experiment: Viability via SIKT with degraded oral gel; type: cell-based; conditions: for percentage of cells that are viable relative to PBS control: n = 6
From the text: For viability via SIKT, the same gel degradation procedure as described above is used to treat an overnight culture of Actinomyces viscosus (ATCC #43146) and Streptococcus oralis (ATCC #35037). […] Samples are then processed and the results are presented as a percentage of cells that are viable relative to a control sample treated with PBS alone (negative control).

Compound | solubility at 48 h [1] [µg/mL] | water solubility [2] | percentage of cells that are viable relative to PBS control, Average ([3]; Average of Day 0-28, n = 24) [%] | percentage of cells that are viable relative to PBS control ([3]; Day 0, 30 seconds treatment) [%] | percentage of cells that are viable relative to PBS control ([3]; Day 7, 30 seconds treatment) [%] | percentage of cells that are viable relative to PBS control ([3]; Day 14, 30 seconds treatment) [%] | percentage of cells that are viable relative to PBS control ([3]; Day 28, 30 seconds treatment) [%]
COc1cc(CCC(=O)CC(=O)CCc2ccc(O)c(OC)c2)ccc1O [Tetrahydrocurcumin] | 85 to 236 (≈ 228 to 634 µM) | about 6 μg/mL | – | – | – | – | –
CCO [Ethanol] | – | – | 16.3 | 16.8 | 14.5 | 14.7 | 19.0
